In US9421177B2, “Imidamide sphingosine kinase inhibitors” (University of Virginia Patent Foundation, priority 2009, dated 2016):

How the values were obtained:
[1] = Pro-drug activity: conversion of amidoxime to amidine in mice; type: in vivo; conditions: 20 mpk, IP or oral, FIG. 7B
Procedure: Mice were dosed with 20 mpk of amidoxime, VPC96143, both IP and orally. S1P in plasma and organs was measured at times ASAP, 2 hrs and 24 hrs. The compound amidine, VPC96077, was also measured in plasma and organs at times ASAP, 2 hrs and 24 hrs.
Mice Numbering • 51: dosed with 20 mpk amidoxime VPC96143 administered IP. Plasma extracted ASAP and 2 hrs. Organs harvested at 2 hrs. • 52: dosed with 20 mpk amidoxime VPC96143 administered IP. Plasma extracted ASAP and 24 hrs. Organs harvested at 2 hrs. • 53: dosed with 20 mpk amidoxime VPC96143 administered orally. Plasma extracted ASAP and 2 hrs. Organs harvested at 2 hrs.

mouse SphK2 = mouse SphK2 (Mus musculus (Mouse), UniProt Q9JIA7); test: Determination of Ki values, recombinant mouse SphK2 in Sf9 cell homogenates; type: biochemical; conditions: amidine HCl salt; recombinant mouse SphK2, Sf9 homogenate, 37 C, 20 minutes; read-out: SphK2 inhibitory constant (Ki)
Procedure: (§1) Sphingosine kinase activity was assessed as described previously (Kharel, Y., Lee, S., Snyder, A. H., Sheasley-O'Neill, S. L., Morris, M. A., Setiady, Y., Zhu, R., Zigler, M. A., Burcin, T. L., Ley, K., Tung, K. S. K., Engelhard, V. H., Macdonald, T. L. and Lynch, K. R. Sphingosine kinase 2 is required for modulation of lymphocyte traffic by FTY720. J Biological Chemistry 280: 36865-36872 (2005)). High levels of human sphingosine kinase type 1 (mSK1) and mouse sphingosine kinase type 2 (mSK2) were expressed in Sf9 insect cells by infection with cognate baculoviruses. Crude homogenates were incubated with γ-[^32P]ATP and 10 micromolar D-erythro-sphingosine in the presence of 100 micromolar concentrations of test compounds for 20 minutes at 37 C. The product, radiolabeled S1P, was isolated by extraction into organic solvents after acidification and […] by thin layer chromatography. […]
(§2) Crude homogenates of Sf9 cells containing high levels of recombinant mouse SphK2 or human SphK1 were incubated with γ-[^32P]ATP and various concentrations (0 to 500 micromolar) of D-erythro-sphingosine for 20 minutes […] at 37 C in the presence of fixed concentration of test compound. The product, radiolabeled S1P, was isolated by extraction into organic solvents followed by thin layer chromatography, recovered and radioactivity measured by liquid scintillation counting. […]

human SphK1 = human SphK1 (Homo sapiens (Human), UniProt Q9NYA1); test: Determination of Ki values, recombinant human SphK1 in Sf9 cell homogenates; type: biochemical; conditions: amidine HCl salt; recombinant human SphK1, Sf9 homogenate, 37 C, 20 minutes; read-out: SphK1 inhibitory constant (Ki)
Procedure: as §1, §2

human SphK1, sequence (Q9NYA1 whole entry): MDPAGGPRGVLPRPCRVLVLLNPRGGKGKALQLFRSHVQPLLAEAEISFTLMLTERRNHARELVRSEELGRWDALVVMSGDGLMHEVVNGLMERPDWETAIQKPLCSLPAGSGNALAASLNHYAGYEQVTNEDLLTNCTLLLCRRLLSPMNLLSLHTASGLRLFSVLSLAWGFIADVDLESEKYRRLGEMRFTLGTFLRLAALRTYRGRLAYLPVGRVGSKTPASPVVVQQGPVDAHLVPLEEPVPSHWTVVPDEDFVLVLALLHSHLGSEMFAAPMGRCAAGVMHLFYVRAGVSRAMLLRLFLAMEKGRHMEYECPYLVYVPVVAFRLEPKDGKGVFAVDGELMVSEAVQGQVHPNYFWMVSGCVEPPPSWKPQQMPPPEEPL
mouse SphK2, sequence (Q9JIA7 whole entry): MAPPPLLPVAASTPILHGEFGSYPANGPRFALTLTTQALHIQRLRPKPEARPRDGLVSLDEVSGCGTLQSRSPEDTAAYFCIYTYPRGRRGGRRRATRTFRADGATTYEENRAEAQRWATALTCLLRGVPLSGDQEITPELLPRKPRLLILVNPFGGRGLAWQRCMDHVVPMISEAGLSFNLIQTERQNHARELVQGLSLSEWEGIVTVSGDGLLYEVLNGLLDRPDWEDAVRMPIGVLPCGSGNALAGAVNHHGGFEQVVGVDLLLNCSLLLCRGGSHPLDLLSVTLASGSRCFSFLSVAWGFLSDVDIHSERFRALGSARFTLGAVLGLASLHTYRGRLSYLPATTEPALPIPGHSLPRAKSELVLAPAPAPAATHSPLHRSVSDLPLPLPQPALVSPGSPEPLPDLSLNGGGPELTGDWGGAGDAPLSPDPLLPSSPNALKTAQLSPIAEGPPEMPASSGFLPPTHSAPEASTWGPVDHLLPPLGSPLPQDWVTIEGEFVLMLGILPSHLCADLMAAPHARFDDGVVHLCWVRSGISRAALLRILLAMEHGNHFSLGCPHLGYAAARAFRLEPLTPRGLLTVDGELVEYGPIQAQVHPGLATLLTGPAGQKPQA

SMILES	conversion of amidoxime pro-drug to amidine congener VPC96077 (accumulation in plasma) [1]	Ki (mouse SphK2) [µM]	Ki (human SphK1) [µM]
CCCCCCCCCCCc1ccc(C(=O)N2CCC[C@H]2/C(N)=N/O)cc1 [VPC96143]	conversion of the amidoxime to the amidine in vivo		
N/C(=N\O)C1(C(=O)Nc2ccc(CCCCCCCCCc3ccccc3)cc2)CC1 [VPC143129]		> 10	0.5
